Measured values published in US9265253B2, “Use of macrocyclic picolinamides as fungicides” (DOW AGROSCIENCES LLC, priority 2013, dated 2016).
Like-named read-outs stand apart in the source and are kept apart here.

Assays:
Format in all cases: in vivo
[1] = tested on: Alternaria solani; assay: Tomato Early Blight (ALTESO) disease control; settings: Alternaria solani, topical, 24 h, 1 Day Protectant, read-out: Disease Control ALTESO 1 DP
Experimental: Technical grades of materials were dissolved in acetone, which were then mixed with nine volumes of water containing 110 ppm Triton X-100. The fungicide solutions were applied onto wheat seedlings using an automated booth sprayer to run-off. All sprayed plants were allowed to air dry prior to further handling. All fungicides were evaluated using the aforementioned method for their activity vs. all target diseases. Wheat leaf blotch and brown rust activity were also evaluated using track spray applications, in which case the fungicides were formulated as EC formulations, containing 0.1% Trycol 5941 in the spray solutions. Wheat plants (variety Yuma) were grown from seed in a greenhouse in 50% mineral soil/50% soil-less Metro mix until the first leaf was fully emerged, with 7-10 seedlings per pot. These plants were inoculated with an aqueous spore suspension of Septoria tritici either prior to or after fungicide treatments. After inoculation the plants were kept in 100% relative humidity (one day in a dark dew chamber followed by two to three days in a lighted dew chamber at 20° C.) to permit spores to germinate and infect the leaf. The plants were then transferred to a greenhouse set at 20° C. for disease to develop. When disease symptoms were fully expressed on the 1st leaves of untreated plants, infection levels were assessed on a scale of 0 to 100 percent disease severity. Percent disease control was calculated using the ratio of disease severity on treated plants relative to untreated plants. Tomato plants (variety Outdoor girl) were propagated in soil-less Metro mix, with each pot having one plant, and used when 12 to 14 days old. Test plants were inoculated with an aqueous spore suspension of Alternaria solani 24 hr after fungicide treatments. After inoculation the plants were kept in 100% relative humidity (one day in a dark dew chamber followed by two to three days in a lighted dew chamber at 20° C.) to permit spores to germinate and infect the leaf. The plants were then transferred to a growth room at 22° C. for disease to develop. Fungicide formulation, application and disease assessment on the sprayed leaves followed the procedures as described in the Example A.

[2] = tested on: Mycosphaerella graminicola; Anamorph: Septoria tritici; assay: Leaf Blotch of Wheat (SEPTTR) disease control; settings: Zymoseptoria tritici; for pest or weed control at 121.5 g/ha: rate 121.5 g/H; for pest or weed control at 100 ppm: rate 100 ppm
Summary of the method: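 Protective or curative format: Septoria tritici inoculation either preceded or followed fungicide application to first-leaf Yuma wheat. Severity scored 0–100%; control expressed versus untreated.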

[3] = tested on: Puccinia triticina; Synonym: Puccinia recondite f. Sp. Tritici; assay: Wheat Brown Rust (PUCCRT) disease control; settings: Puccinia triticina, topical; for pest or weed control at 121.5 g/ha: rate 121.5 g/H; for pest or weed control at 100 ppm: rate 100 ppm
Summary of the method: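 Brown rust on first-leaf Yuma wheat: spore inoculation before or after spray application (acetone/Triton X-100 solution, or EC with Trycol in track spray), overnight 100% RH at 22 °C, disease developed at 24 °C. Severity scored 0–100% and converted to percent control against untreated.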

[4] = tested on: Uncinula necator; assay: Grape Powdery Mildew (UNCINE) disease control; settings: Erysiphe necator, topical, 24 h, 1 Day Protectant, read-out: Disease Control UNCINE 1 DP
Experimental: Technical grades of materials were dissolved in acetone, which were then mixed with nine volumes of water containing 110 ppm Triton X-100. The fungicide solutions were applied onto wheat seedlings using an automated booth sprayer to run-off. All sprayed plants were allowed to air dry prior to further handling. All fungicides were evaluated using the aforementioned method for their activity vs. all target diseases. Wheat leaf blotch and brown rust activity were also evaluated using track spray applications, in which case the fungicides were formulated as EC formulations, containing 0.1% Trycol 5941 in the spray solutions. Wheat plants (variety Yuma) were grown from seed in a greenhouse in 50% mineral soil/50% soil-less Metro mix until the first leaf was fully emerged, with 7-10 seedlings per pot. These plants were inoculated with an aqueous spore suspension of Septoria tritici either prior to or after fungicide treatments. After inoculation the plants were kept in 100% relative humidity (one day in a dark dew chamber followed by two to three days in a lighted dew chamber at 20° C.) to permit spores to germinate and infect the leaf. The plants were then transferred to a greenhouse set at 20° C. for disease to develop. When disease symptoms were fully expressed on the 1st leaves of untreated plants, infection levels were assessed on a scale of 0 to 100 percent disease severity. Percent disease control was calculated using the ratio of disease severity on treated plants relative to untreated plants. Grape seedlings (variety Carignane) were grown in soil-less Metro mix, with one plant per pot, and used in the test when approximately one month old. Plants were inoculated 24 hr after fungicide treatment by shaking spores from infected leaves over test plants. Plants were maintained in a greenhouse set at 20° C. until disease was fully developed. Fungicide formulation, application and disease assessment on the sprayed leaves followed the procedures as described in the Example A.

[5] = 24 h, 1 Day Protectant, read-out: SEPTTR 1 DP disease control
[6] = 72 h, 3 Day Curative, read-out: SEPTTR 3 DC disease control
[7] = 24 h, 1 Day Protectant, read-out: PUCCRT 1 DP disease control
[8] = 72 h, 3 Day Curative, read-out: PUCCRT 3 DC disease control

Row | Compound | pest or weed control at 100 ppm [1] [%] | pest or weed control at 121.5 g/ha [2, 5] [%] | pest or weed control at 121.5 g/ha [2, 6] [%] | pest or weed control at 121.5 g/ha [3, 7] [%] | pest or weed control at 121.5 g/ha [3, 8] [%] | pest or weed control at 100 ppm [4] [%] | pest or weed control at 100 ppm [2, 5] [%] | pest or weed control at 100 ppm [2, 6] [%] | pest or weed control at 100 ppm [3, 7] [%] | pest or weed control at 100 ppm [3, 8] [%]
1 | COc1ccnc(C(=O)N[C@H]2CCC[C@H](Cc3ccc(F)cc3F)[C@@H](OCC(C)C)[C@H](C)OC2=O)c1OCOC(C)=O [Compound F145] | 80 to 100 | 80 to 100 | 80 to 100 | 80 to 100 | 80 to 100 | 80 to 100 | – | – | – | –
2 | COCC[C@H]1CCC[C@H](NC(=O)c2nccc(OC)c2OC(C)=O)C(=O)O[C@@H](C)[C@@H]1Oc1ccccc1 [Compound F78] | 0 to 80 | 80 to 100 | 80 to 100 | 80 to 100 | 80 to 100 | 0 to 80 | 80 to 100 | 80 to 100 | 80 to 100 | 80 to 100
3 | CCCO[C@@H]1[C@@H](Cc2ccccc2)CCC[C@H](NC(=O)c2nccc(OC)c2OC(C)=O)C(=O)O[C@H]1C [Compound F88] | 80 to 100 | 80 to 100 | 80 to 100 | 80 to 100 | 80 to 100 | 80 to 100 | – | – | – | –
4 | COc1ccnc(C(=O)N[C@H]2CCC[C@H](Cc3ccc(F)cc3)[C@@H](OCC3CC3)[C@H](C)OC2=O)c1OC(C)=O [Compound F67] | 80 to 100 | 80 to 100 | 80 to 100 | 80 to 100 | 80 to 100 | 0 to 80 | 80 to 100 | 80 to 100 | 80 to 100 | 80 to 100
5 | C=C[C@H]1CCC[C@H](NC(=O)c2nccc(OC)c2OC(C)=O)C(=O)O[C@@H](C)[C@@H]1Oc1ccccc1 [Compound F86] | 0 to 80 | 80 to 100 | 80 to 100 | 80 to 100 | 80 to 100 | 80 to 100 | – | – | – | –
6 | CCCO[C@@H]1[C@@H](Cc2ccc(OC)cc2)CCC[C@H](NC(=O)c2nccc(OC)c2OCOC(C)=O)C(=O)O[C@H]1C [Compound F119] | 0 to 80 | 80 to 100 | 80 to 100 | 80 to 100 | 80 to 100 | – | 80 to 100 | 80 to 100 | 80 to 100 | 80 to 100
7 | CCCO[C@@H]1[C@@H](Cc2ccccc2)CCC[C@H](NC(=O)c2nccc(OC)c2OCOC(C)=O)C(=O)O[C@H]1C [Compound F109] | 80 to 100 | 80 to 100 | 80 to 100 | 80 to 100 | 80 to 100 | 80 to 100 | 80 to 100 | 80 to 100 | 80 to 100 | 80 to 100
